Here are results for 3 compounds from paper PMC7414093 (Proceedings of the National Academy of Sciences of the …, 2020).

The EC50 is the concentration needed to bring the measured effect to its halfway point. What is called solubility is the dissolved amount per volume that the medium holds. By half-life is commonly meant the time in which the quantity being followed falls by half. A low value points to rapid decline. A word on the microsomal CLint: it is the rate of metabolic loss divided by the concentration. A low value points to slow turnover.

SMILES strings stand for the structures. “And” between values parts separate entries of the source, which are not always exact repeats. Equal values may be shown once. Some results are limits rather than exact numbers.

Series [1] addresses H5 A/Vietnam/1203/2004 HA (Influenza A virus, UniProt Q5EP31). Kind of series: biochemical. Format: binding.
Series [2] concerns H1N1 virus expressing A/Beijing/262/1995 (H1/Beijing). Kind of series: microbe, parasite or virus in culture. The class given is cell-based. Conditions: Influenza A virus, H1N1, 72 h, read-out: EC50, virus neutralization.
Series [3] deals with H1N1 virus expressing A/Solomon Islands/3/2006 (H1/SI06). Kind of series: microbe, parasite or virus in culture. Format: cell-based, influenza A virus.
Series [4] has as its system H5N1 pseudovirus expressing H5 A/Vietnam/1203/2004. Kind of series: organism not typed. Format: cell-based, influenza A virus. Conditions: 72 h, read-out: EC50, virus neutralization.
A short description of the next series: Solubility in PBS. Conditions: aqueous buffer. Format: physicochemical.
The subject of another series is MDCK-SIAT1 cells. Conditions: for cytotoxic concentration (CC)50: dog.
The nature of series [5]: in vitro. As to conditions: dog, CC50, compound alone, 72 h.
Series [6] can be described thus: in vitro. As to conditions: human, pH 7.4.
A further series relates to human cells. The arrangement: method as in PMID 30846569. Conditions: cited from earlier work.

Take `O=C(c1ccc(Cl)cc1Cl)N1CCO[C@@H](c2ccccc2)C1` [F0045(S)]: the EC50 in [1] is 16.2 ± 3.4 µM; in [2] it was 1.6 ± 0.1 µM; in series [3] (Influenza A virus, H1N1, 72 h, read-out: EC50, virus neutralization) it was more than 150 µM; in series [4] it was 22.8 ± 2.3 µM. Moreover, the “protection from infection (in words)” value in series [3] was “did not protect cells from infection”. Further, the solubility in “Solubility in PBS” is more than 500 µM. In addition, the “cytotoxic concentration (CC)50” value in the series with MDCK-SIAT1 cells was more than 130 µM. In addition, the CC50 in the series with MDCK-SIAT1 cells (read-out: CC50, compound alone, 72 h) is 157 µM and 84 µM and 98 µM; in the series “in vitro [5]” it was 102 µM. Further, the k el in “in vitro [6]” (0.42 mg) is 0.000283 s⁻¹. In addition, in the series “in vitro [6]” (microsomes), the half-life was found to be 40.8 min. This compound also yielded a microsomal CLint in “in vitro [6]” (microsomes) of 41 µL/min/mg.
Consider `CC(=O)Nc1ccc2oc(-c3ccnc(C(=O)N4CCN([C@H](c5ccccc5)c5nnn(C)n5)CC4)c3)nc2c1` [JNJ4796], for which the CC50 in the series on human cells is more than 10 µM.
Take `O=C(c1ccc(Cl)cc1Cl)N1CCO[C@H](c2ccccc2)C1` [F0045(R)]: the “cytotoxic concentration (CC)50” value in the series with MDCK-SIAT1 cells is more than 130 µM. In the series “in vitro [5]”, the CC50 is 138 µM.
